Where two headings read alike, the source gives them in different places.

For the experiment, the system named is RS4;11 cells. Kind of experiment: RS4;11 cell viability assay (CellTiter Glo).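 Further: acute lymphoblastic leukemia line RS4,11, EC50 derived from percentage of viable cells after treatment relative to untreated controls, cell killing taken as a measure of Bcl-2 inhibition.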 Type of experiment: cell-based, human. Conditions: Homo sapiens, read-out: RS4. (ATP-based viability assays read luminescence as a measure of living cells.)
Where [1] appears, read: RS4-11, 48 h, 50,000 cells per well, 10% human serum, 48 hours, 11 EC50 Values.
Setting [2] is: RS4-11, Table 5, direct comparison Z=N with corresponding analogs Z=C, 11 EC50.

Experimental: The acute lymphoblastic leukemia (ALL) cell line RS4;11 was used as the primary human cell line to assess the cellular activity of Bcl-2 selective agents in vitro and their efficacy in vivo.
Cell cytotoxicity EC50 values were assessed using CellTiter Glo (Promega) according to the manufacturer's recommendations. The EC50 values were determined as a percentage of viable cells following treatment compared to the untreated control cells.

In the case of `CC1(C)CCC(CN2CCN(c3ccc(C(=O)NS(=O)(=O)c4ccc(OC[C@@H]5COCCO5)c([N+](=O)[O-])c4)c(Oc4cnc5[nH]ccc5c4)c3)CC2)=C(c2ccc(Cl)cc2)C1` [Example 28, 4-(4-{[2-(4-chlorophenyl)-4,4-dimethylcyclohex-1-en-1-yl]methyl}piperazin-1-yl)-N-({4-[(2S)-1,4-dioxan-2-ylmethoxy]-3-nitrophenyl}sulfonyl)-2-(1H-pyrrolo[2,3-b]pyridin-5-yloxy)benzamide], the EC50 under setting [1] was 41.9 nM.
On the same count and under the same terms, for `CC1(C)CCC(CN2CCN(c3ccc(C(=O)NS(=O)(=O)c4ccc(NCCCN5CCOCC5)c([N+](=O)[O-])c4)c(Oc4cnc5[nH]ccc5c4)c3)CC2)=C(c2ccc(Cl)cc2)C1` [Example 55, 4-(4-{[2-(4-chlorophenyl)-4,4-dimethylcyclohex-1-en-1-yl]methyl}piperazin-1-yl)-N-({4-[(3-morpholin-4-ylpropyl)amino]-3-nitrophenyl}sulfonyl)-2-(1H-pyrrolo[2,3-b]pyridin-5-yloxy)benzamide] the value was 13.2 nM; for `CC1(C)CCC(CN2CCN(c3ccc(C(=O)NS(=O)(=O)c4ccc(NC[C@@H]5CCN(C6CCOCC6)C5)c([N+](=O)[O-])c4)c(Oc4cnc5[nH]ccc5c4)c3)CC2)=C(c2ccc(Cl)cc2)C1` [Example 145, 4-(4-{[2-(4-chlorophenyl)-4,4-dimethylcyclohex-1-en-1-yl]methyl}piperazin-1-yl)-N-{[3-nitro-4-({[(3S)-1-tetrahydro-2H-pyran-4-ylpyrrolidin-3-yl]methyl}amino)phenyl]sulfonyl}-2-(1H-pyrrolo[2,3-b]pyridin-5-yloxy)benzamide], 4 nM.
Take `CC1(C)CCC(CN2CCN(c3ccc(C(=O)NS(=O)(=O)c4ccc(NCCCNC5CC5)c([N+](=O)[O-])c4)c(Oc4cnc5[nH]ccc5c4)c3)CC2)=C(c2ccc(Cl)cc2)C1` [Example 291, 4-(4-{[2-(4-chlorophenyl)-4,4-dimethylcyclohex-1-en-1-yl]methyl}piperazin-1-yl)-N-[(4-{[3-(cyclopropylamino)propyl]amino}-3-nitrophenyl)sulfonyl]-2-(1H-pyrrolo[2,3-b]pyridin-5-yloxy)benzamide]: the EC50 under setting [1] turned out to be 16.1 nM.
As to `CC1(C)CCC(CN2CCN(c3ccc(C(=O)NS(=O)(=O)c4ccc(NCC5CCOCC5)c(S(=O)(=O)C(F)(F)F)c4)c(Oc4ccc5[nH]ccc5c4)c3)CC2)=C(c2ccc(Cl)cc2)C1` [Example 94, 4-(4-{[2-(4-chlorophenyl)-4,4-dimethylcyclohex-1-en-1-yl]methyl}piperazin-1-yl)-2-(1H-indol-5-yloxy)-N-({4-[(tetrahydro-2H-pyran-4-ylmethyl)amino]-3-[(trifluoromethyl)sulfonyl]phenyl}sulfonyl)benzamide], the EC50 under setting [1] came to 1690 nM and the EC50 under setting [2] was found to be 1690 nM.
Take `O=C(NS(=O)(=O)c1ccc(NCCCN2CCOCC2)c([N+](=O)[O-])c1)c1ccc(N2CCN(Cc3ccccc3-c3ccc(Cl)cc3)CC2)cc1Oc1cnc2[nH]ccc2c1` [Example 2, 4-{4-[(4′-chloro-1,1′-biphenyl-2-yl)methyl]piperazin-1-yl}-N-({4-[(3-morpholin-4-ylpropyl)amino]-3-nitrophenyl}sulfonyl)-2-(1H-pyrrolo[2,3-b]pyridin-5-yloxy)benzamide]: the EC50 is 783 nM under setting [1] and 783 nM under setting [2].
As to `CC1(C)CCC(CN2CCN(c3ccc(C(=O)NS(=O)(=O)c4ccc(N[C@H]5CCN(C6CCOCC6)C5)c([N+](=O)[O-])c4)c(Oc4cnc5[nH]ccc5c4)c3)CC2)=C(c2ccc(Cl)cc2)C1` [Example 132, 4-(4-{[2-(4-chlorophenyl)-4,4-dimethylcyclohex-1-en-1-yl]methyl}piperazin-1-yl)-N-[(3-nitro-4-{[(3S)-1-tetrahydro-2H-pyran-4-ylpyrrolidin-3-yl]amino}phenyl)sulfonyl]-2-(1H-pyrrolo[2,3-b]pyridin-5-yloxy)benzamide], under setting [1], the EC50 turned out to be 22.1 nM.
`CC1(C)CCC(CN2CCN(c3ccc(C(=O)NS(=O)(=O)c4ccc(NC5CCC(N(CCC#N)C6CC6)CC5)c([N+](=O)[O-])c4)c(Oc4cnc5[nH]ccc5c4)c3)CC2)=C(c2ccc(Cl)cc2)C1` (stereo not shown) [Example 340, 4-(4-{[2-(4-chlorophenyl)-4,4-dimethylcyclohex-1-en-1-yl]methyl}piperazin-1-yl)-N-{[4-({4-[(2-cyanoethyl)(cyclopropyl)amino]cyclohexyl}amino)-3-nitrophenyl]sulfonyl}-2-(1H-pyrrolo[2,3-b]pyridin-5-yloxy)benzamide]: the EC50 under setting [1] stood at 56.5 nM.
With `CC1(C)CCC(CN2CCN(c3ccc(C(=O)NS(=O)(=O)c4ccc(NC[C@H]5CCN(C6COC6)C5)c([N+](=O)[O-])c4)c(Oc4cnc5[nH]ccc5c4)c3)CC2)=C(c2ccc(Cl)cc2)C1` [Example 195, 4-(4-{[2-(4-chlorophenyl)-4,4-dimethylcyclohex-1-en-1-yl]methyl}piperazin-1-yl)-N-{[3-nitro-4-({[(3R)-1-oxetan-3-ylpyrrolidin-3-yl]methyl}amino)phenyl]sulfonyl}-2-(1H-pyrrolo[2,3-b]pyridin-5-yloxy)benzamide], the EC50 under setting [1] came to 2.07 nM.
Take `CC1(C)CCC(CN2CCN(c3ccc(C(=O)NS(=O)(=O)c4cnc(OCC5CCOCC5)c(S(C)(=O)=O)c4)c(Oc4cnc5[nH]ccc5c4)c3)CC2)=C(c2ccc(Cl)cc2)C1` [Example 219, 4-(4-{[2-(4-chlorophenyl)-4,4-dimethylcyclohex-1-en-1-yl]methyl}piperazin-1-yl)-N-{[5-(methylsulfonyl)-6-(tetrahydro-2H-pyran-4-ylmethoxy)pyridin-3-yl]sulfonyl}-2-(1H-pyrrolo[2,3-b]pyridin-5-yloxy)benzamide]: under setting [1], the EC50 is > 1000 nM.
As to `CC1(C)CCC(CN2CCN(c3ccc(C(=O)NS(=O)(=O)c4ccc(NC[C@H]5CCCOC5)c([N+](=O)[O-])c4)c(Oc4ccc5[nH]ccc5c4)c3)CC2)=C(c2ccc(Cl)cc2)C1` [Example 22, 4-(4-{[2-(4-chlorophenyl)-4,4-dimethylcyclohex-1-en-1-yl]methyl}piperazin-1-yl)-2-(1H-indol-5-yloxy)-N-[(3-nitro-4-{[(3R)-tetrahydro-2H-pyran-3-ylmethyl]amino}phenyl)sulfonyl]benzamide], the EC50 reads like this: under setting [1], 85 nM; under setting [2], 85 nM.
Regarding `CC1(C)CCC(CN2CCN(c3ccc(C(=O)NS(=O)(=O)c4cnc(NC5CCN(C6CC6)CC5)c(Cl)c4)c(Oc4cnc5[nH]ccc5c4)c3)CC2)=C(c2ccc(Cl)cc2)C1` [Example 243, N-({5-chloro-6-[(1-cyclopropylpiperidin-4-yl)amino]pyridin-3-yl}sulfonyl)-4-(4-{[2-(4-chlorophenyl)-4,4-dimethylcyclohex-1-en-1-yl]methyl}piperazin-1-yl)-2-(1H-pyrrolo[2,3-b]pyridin-5-yloxy)benzamide], the EC50 under setting [1] amounted to 807 nM.
In the case of `CN(C)CC(=O)N1CCC(COc2ncc(S(=O)(=O)NC(=O)c3ccc(N4CCN(CC5=C(c6ccc(Cl)cc6)CC(C)(C)CC5)CC4)cc3Oc3cnc4[nH]ccc4c3)cc2Cl)CC1` [Example 260, N-[(5-chloro-6-{[1-(N,N-dimethylglycyl)piperidin-4-yl]methoxy}pyridin-3-yl)sulfonyl]-4-(4-{[2-(4-chlorophenyl)-4,4-dimethylcyclohex-1-en-1-yl]methyl}piperazin-1-yl)-2-(1H-pyrrolo[2,3-b]pyridin-5-yloxy)benzamide], the EC50 under setting [1] was 5.43 nM.
